Data from patent US11814376B2, “Hepatitis b core protein modulators” (Assembly Biosciences, Inc., priority 2015, dated 2023).

Tests used:
[1] = tested on: HBV viral load in AD38 cells; assay: Viral load production in AD38 cells, quantitative PCR of the core sequence in supernatant; assay type: cell-based; settings: 10 μM compound, 6 days at 37° C., supernatant qPCR, relative to DMSO control; for activity at 10 µM: Hepatitis B virus, 144 h, read-out: AD38 Viral Load (%) (VL with cmpd/VL in DMSO control) at 10 μM
[2] = tested on: AD38 cells; assay: Viability of AD38 cells (Promega CellTiter-Glo); assay type: cell-based; settings: 10 μM compound, 6 days, CellTiter-Glo luminescence normalized to DMSO control (100%)
Outline: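 AD38 cells were seeded at 50,000/well on collagen-coated plates and treated with compound added as a 10× solution in 10% DMSO for 6 days at 37° C. Viability was measured by CellTiter-Glo luminescence in tetracycline-free medium with 2% FBS and 1% DMSO, and expressed as percent of DMSO control.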

Structure (SMILES) | activity at 10 µM [1] [%] | AD38 Viability Normalized Result (cmpd/DMSO %) at 10 μM [2] [%] | AD38 Viral Load (%) (VL with cmpd/VL in DMSO control) at 10 μM [1]
CN1CCC(COc2ccc(-c3ncc(CNC(=O)c4ccc5c(c4)NC(=O)c4ccccc4S5(=O)=O)s3)cc2)CC1.Cl [compound 11138, N-((2-(4-((1-methylpiperidin-4-yl)methoxy)phenyl)thiazol-5-yl)methyl)-11-oxo-10, 11-dihydrodibenzo [b, f] [1, 4] thiazepine-8-carboxamide 5,5-dioxide hydrochloride] | 1 | 96 | –
CN(C)CCOc1ncc(CN(C)C(=O)c2ccc3c(c2)NC(=O)c2ccccc2S3(=O)=O)s1 [compound 1660, N-((2-(2-(dimethylamino)ethoxy)thiazol-5-yl)methyl)-N-methyl-11-oxo-10, 11-dihydrodibenzo [b, f] [1, 4] thiazepine-8-carboxamide 5,5-dioxide] | 86.8 | 102 | –
CCc1cc2c(cc1C(=O)NCc1cnc(C(F)(F)F)s1)NC(=O)c1ccccc1S2(=O)=O [compound 11041] | 47.4 | 94 | –
O=C(NCc1cnc(-c2ccc3[nH]cnc3c2)s1)c1ccc2c(c1)NC(=O)c1ccccc1S2(=O)=O [compound 1637] | 2.3 | 101 | –
CC(C)N(C)CCCOc1ccc(-c2ncc(CNC(=O)c3ccc4c(c3)NC(=O)c3ccccc3S4(=O)=O)s2)cc1 [compound 11091] | 1.3 | 89 | –
CC1(C)CCN(c2ncc(CNC(=O)c3ccc4c(c3)NC(=O)c3ccccc3S4(=O)=O)s2)C1 [compound 1981] | 0.2 | 105 | –
N#Cc1ccc(-c2ncc(CNC(=O)c3ccc4c(c3)NC(=O)c3ccccc3S4(=O)=O)s2)cc1F [compound 1815] | 0.2 | 88 | –
O=C(NCc1cnc(-c2ccc3ncccc3c2)s1)c1ccc2c(c1)NC(=O)c1ccccc1S2(=O)=O [compound 1819] | 0.5 | 118 | –
Cc1c(C(=O)NCc2cnc(-c3ccc(O)cc3)s2)ccc2c1NC(=O)c1ccccc1S2(=O)=O [compound 1768] | 0.4 | 94 | –
CC(C)(O)Cc1ccccc1-c1ncc(CNC(=O)c2ccc3c(c2)NC(=O)c2ccccc2S3(=O)=O)s1 [compound 1840] | 3.2 | 107 | –
CN(C)CC1(COc2ccc(-c3ncc(CNC(=O)c4ccc5c(c4)NC(=O)c4ccccc4S5(=O)=O)s3)cc2)CC1 [compound 11112] | 4 | 100 | –
O=C(NCc1cnc(-c2ccc(OCC3CNC3)cc2)s1)c1ccc2c(c1)NC(=O)c1ccccc1S2(=O)=O.O=C(O)C(F)(F)F [compound 1995, N-((2-(4-(azetidin-3-ylmethoxy)phenyl)thiazol-5-yl)methyl)-11-oxo-10, 11-dihydrodibenzo [b, f] [1, 4] thiazepine-8-carboxamide 5,5-dioxide TFA salt] | 16.3 | 103 | –
Cc1cc2c(cc1C(=O)NCc1cncs1)NC(=O)c1ccccc1S2 [compound 1496] | 9.6 | 57 | –
O=C(NCc1cnc(-c2ccc(OCCCOn3nnc4cccnc43)cc2)s1)c1ccc2c(c1)NC(=O)c1ccccc1S2(=O)=O [11108-B, N-((2-(4-(3-((3H-[1,2,3]triazolo[4,5-b]pyridin-3-yl)oxy)propoxy)phenyl)thiazol-5-yl)methyl)-11-oxo-10,11-dihydrodibenzo[b, f] [1,4]thiazepine-8-carboxamide 5,5-dioxide] | 0.8 | 101 | –
O=C1Nc2c(ccc(C(=O)NCc3cnc(C(F)(F)F)s3)c2Cl)S(=O)(=O)c2ccccc21 [compound 11082] | 1.2 | 95 | –
O=C(NCc1cnc(-c2ccc(O)cc2)s1)c1ccc2c(c1)NC(=O)c1ccc(Cl)cc1S2 [compound 1761] | 10.7 | 97 | –
O=C(NCc1cnc(-c2cc(O)ccn2)s1)c1ccc2c(c1)NC(=O)c1ccccc1S2(=O)=O [compound 1880, N-((2-(4-hydroxypyridin-2-yl)thiazol-5-yl)methyl)-11-oxo-10, 11-dihydrodibenzo [b, f] [1, 4] thiazepine-8-carboxamide 5,5-dioxide] | 6.7 | 104 | –
CC(C)(C)OC(=O)NCCCS(=O)(=O)c1ccc(-c2ncc(CNC(=O)c3ccc4c(c3)NC(=O)c3ccccc3S4(=O)=O)s2)cc1 [11032-A, tert-butyl (3-((4-(5-((5,5-dioxido-11-oxo-10, 11-dihydrodibenzo [b, f] [1, 4]thiazepine-8-carboxamido)methyl)thiazol-2-yl)phenyl)sulfonyl)propyl) carbamate] | – | 110 | 12.9

Structure (SMILES) | activity at 10 µM [1] [%] | AD38 Viability Normalized Result (cmpd/DMSO %) at 10 μM [2] [%] | AD38 Viral Load (%) (VL with cmpd/VL in DMSO control) at 10 μM [1]
CC(C)(C)c1ncc(CNC(=O)c2ccc3c(c2)NC(=O)c2ccccc2S3(=O)=O)s1 [compound 1550] | 4 | 96 | –
O=C(NCc1cnc(Cc2ccc(O)cc2)s1)c1ccc2c(c1)NC(=O)c1ccccc1O2 [compound 1835, N-((2-(4-hydroxybenzyl)thiazol-5-yl)methyl)-11-oxo-10, 11-dihydrodibenzo [b, f] [1, 4] oxazepine-8-carboxamide] | 12.3 | 94 | –
Cl.NCc1cnc(-c2ncc(CNC(=O)c3ccc4c(c3)NC(=O)c3ccccc3S4)s2)s1 [compound 1735, N-((5′-(aminomethyl)-[2, 2′-bithiazol]-5-yl)methyl)-11-oxo-10, 11-dihydrodibenzo [b, f] [1, 4] thiazepine-8-carboxamide hydrochloride] | 3.1 | 92 | –
Cc1cc(-c2ncc(CNC(=O)c3ccc4c(c3)NC(=O)c3ccccc3S4(=O)=O)s2)cc(C)c1O [compound 1806, N-((2-(4-hydroxy-3,5-dimethylphenyl)thiazol-5-yl)methyl)-11-oxo-10, 11-dihydrodibenzo [b, f] [1, 4] thiazepine-8-carboxamide 5,5-dioxide] | 0.8 | 105 | –
O=C(NCc1cnc(-c2cc[nH]n2)s1)c1ccc2c(c1)NC(=O)c1ccccc1S2(=O)=O [compound 1959] | 5 | 92 | –
CC(C)(C)OC(=O)NC1CCN(Cc2ncc(CNC(=O)c3ccc4c(c3)NC(=O)c3ccccc3S4(=O)=O)s2)CC1 [1885-A] | 4.5 | 107 | –
O=C(NCc1cnc(-c2ccc(CCCCN3CCCCC3)cc2)s1)c1ccc2c(c1)NC(=O)c1ccccc1S2(=O)=O [compound 11055] | 4 | 94 | –
O=C(NCc1cnc(C(F)(F)F)s1)c1ccc2c(c1)NC(=O)c1ccccc1S2 [compound 1421] | 1.3 | 104 | –
Cc1c(C(=O)NCc2cnc(C(F)(F)F)s2)ccc2c1NC(=O)c1ccccc1O2 [compound 1941] | 5.2 | 84 | –
Cc1ncc(CNC(=O)c2ccc3c(c2)NC(=O)c2ccccc2S3(=O)=O)s1 [compound 1528] | 0.8 | 76 | –
O=C(NCc1cnc(-c2cc(F)c(O)c(F)c2)s1)c1ccc2c(c1)NC(=O)c1ccccc1O2 [compound 1701] | 2.1 | 94 | –
CCN1c2ccc(C(=O)NCc3cnc(-c4ccc(O)cc4)s3)cc2NC(=O)c2ccccc21 [compound 1751] | 2.8 | 18 | –
CC(C)N(C)CCCCc1ccc(-c2ncc(CNC(=O)c3ccc4c(c3)NC(=O)c3ccccc3S4(=O)=O)s2)cc1 [compound 11093] | 4.6 | 102 | –
COc1ccc(Cc2ncc(CNC(=O)c3ccc4c(c3)NC(=O)c3ccccc3S4(=O)=O)s2)cc1 [1823-A, N-((2-(4-methoxybenzyl)thiazol-5-yl)methyl)-11-oxo-10, 11-dihydrodibenzo [b, f] [1, 4] thiazepine-8-carboxamide 5,5-dioxide] | 5.8 | 92 | –
CS(=O)(=O)Nc1ccc(-c2ncc(CNC(=O)c3ccc4c(c3)NC(=O)c3ccccc3O4)s2)cc1 [compound 1863] | 9.4 | 106 | –
Cl.O=C(NCc1cnc(-c2ccc(OCC3CCCNC3)cc2)s1)c1ccc2c(c1)NC(=O)c1ccccc1S2(=O)=O (stereo not drawn) [compound 1997, 11-oxo-N-((2-(4-(piperidin-3-ylmethoxy)phenyl)thiazol-5-yl)methyl)-10, 11-dihydrodibenzo [b, f] [1, 4] thiazepine-8-carboxamide 5,5-dioxide hydrochloride] | 9.7 | 104 | –
CN(Cc1cnc(-c2ccc(O)cc2)s1)C(=O)c1ccc2c(c1)NC(=O)c1ccccc1S2(=O)=O [compound 1661] | 45.2 | 90 | –
NS(=O)(=O)c1ccc(-c2ncc(CNC(=O)c3ccc4c(c3)NC(=O)c3ccccc3S4(=O)=O)s2)cc1 [compound 1856] | 1.3 | 96 | –
